Reference: paper PMC4336144, “Screening the Medicines for Malaria Venture "Malaria Box" against the Plasmodium falciparum Aminopeptidases, M1, M17 and M18” (PLoS ONE, 2015)

System: PfA-M1 and/or PfA-M17
Experiment: Multiplex primary screen, fluorogenic substrate Leu-Mec
Format: biochemical, Plasmodium falciparum
Conditions: 100 μM compound, multiplex assay
Method: A multiplex enzyme assay was developed to complete the primary screen of 400 compounds that were provided to us by MMV and SCYNEXIS. Combined PfMAP (15 nM PfA-M1; 80 nM PfA-M17 and 125 nM PfM18AAP) aminopeptidase activity in the presence of a single MMV compound (100 μM solubilized in 100% dimethyl sulfoxide, DMSO, final DMSO concentration in assay = 10%) was determined by simultaneous measurement of the release of the fluorogenic leaving group, -NHMec, from L-Leucine-7-amido-4-methylcoumarin-HCl (Leu-Mec) (Sigma) as well as the hydrolysis of p-nitroanilide from the chromogenic substrate, L-Glutamic acid p-nitroanilide (Glu-pNA) (Sigma). The fluorogenic substrate records the combined activity of PfA-M1 and PfA-M17 while the p-nitroanilide substrate is specific for PfM18AAP. Reactions were carried out in 96-well microtitre plates (200 μL total volume) in 50 mM Tris-HCl pH 8.0, 2 mM CoCl2 at 37°C. Following a 10 min incubation (multi-enzyme and single compound) at 37°C, reactions were initiated by addition of both fluorogenic and chromagenic substrates. Progress curves were monitored using a FLUOstar Omega multimode reader (BMG LabTech) for 1.5 h at 37°C. As activity references, individual enzyme and multiple enzyme 'no compound' controls and 'positive inhibitor' controls (with 10% DMSO) were included in each 96 well plate assay.

CN(C)c1ccc(C=Cc2nc(=O)c3ccccc3o2)cc1 [MMV006309]
Activity (PfA-M1 and/or PfA-M17): R

Cc1ccnc(NC(c2cccc(OCc3ccccc3)c2)c2ccc3cccnc3c2O)c1 (centres unmarked) [MMV000720]
Activity (PfA-M1 and/or PfA-M17): R

COc1ccc2c(c1)OC(O)(C(F)(F)C(F)(F)F)CC2=O (centres unmarked) [MMV007839]
Activity (PfA-M1 and/or PfA-M17): R

OCCNc1nc(Nc2ccc(Cl)c(Cl)c2)nc2ccccc12 [MMV001041]
Activity (PfA-M1 and/or PfA-M17): R

COc1cccc(C(=O)NC(c2ccc(C)cc2)c2cc(Cl)c3cccnc3c2O)c1 (centres unmarked) [MMV665969]
Activity (PfA-M1 and/or PfA-M17): R

Nc1ccc(-c2nc3cc(Oc4ccc(Oc5ccc6[nH]c(-c7ccc(N)cc7)nc6c5)cc4)ccc3[nH]2)cc1 [MMV011895]
Activity (PfA-M1 and/or PfA-M17): R

Cc1ccc(-c2cc(C(=O)Nc3ccc(S(=O)(=O)N4CCCCC4)cc3)[nH]n2)c(O)c1 [MMV665906]
Activity (PfA-M1 and/or PfA-M17): R

O=C(NNc1cc(N2CCCC2)nc(N2CCCC2)n1)c1ccccc1 [MMV396770]
Activity (PfA-M1 and/or PfA-M17): R

COc1ccc(C(=O)NC(c2ccccc2Cl)c2cc(Cl)c3cccnc3c2O)cc1 (centres unmarked) [MMV666022]
Activity (PfA-M1 and/or PfA-M17): R

COc1ccc(C=C2SC(Nc3ccc(F)cc3)=NC2=O)c(OC)c1 [MMV084434]
Activity (PfA-M1 and/or PfA-M17): R

COc1ccc(/C=C2/SC(=Nc3ccccc3)NC2=O)cc1 [MMV665836]
Activity (PfA-M1 and/or PfA-M17): R

Oc1ccc(-c2nc(-c3ccc4oc5ccc(-c6[nH]c(-c7ccc(O)cc7)nc6-c6ccccc6)cc5c4c3)c(-c3ccccc3)[nH]2)cc1 [MMV000753]
Activity (PfA-M1 and/or PfA-M17): R

O=C(Nc1ccc(-c2nc3cc4ccccc4cc3[nH]2)cc1)c1cccc(Br)c1 [MMV019241]
Activity (PfA-M1 and/or PfA-M17): R

COc1ccc(CCN2C(=O)c3[nH]nc(-c4cc(Cl)c(C)cc4O)c3C2c2ccccc2F)cc1 (centres unmarked) [MMV396717]
Activity (PfA-M1 and/or PfA-M17): R

Oc1c(C(Nc2ccccn2)c2cccc(Oc3ccccc3)c2)ccc2cccnc12 (centres unmarked) [MMV665814]
Activity (PfA-M1 and/or PfA-M17): R

CCOC(=O)c1c(NC(=O)c2ccccc2)sc2c(O)c(CN(CC)CC)ccc12 [MMV665831]
Activity (PfA-M1 and/or PfA-M17): R

COc1ccc(C=C2SC(=N)N(c3ccccc3OC)C2=O)cc1 [MMV666691]
Activity (PfA-M1 and/or PfA-M17): R
